From US7582415B2, “Rapid detection of replicating cells” (priority 2001, dated 2009)
In brackets after ≈: the same amount, converted by molar mass.

Experiments:
[1] = system: E. coli MG1655 (sensitive strain); assay: microbe, parasite or virus in culture; details: Escherichia coli, MG1655, 5 h, read-out: zone of inhibition, segment of the E-test strip (minimal inhibitory concentration)
Method: This minimal inhibitory concentration is based on the visualization of zones with no growth, called the zone of inhibition. The zone of inhibition is traditionally measured by the naked eye after an overnight growth.
Experimental Methods: The strains, used in the example and described in Example 13, were diluted to 10^6 CFU/ml and plated on TSA media. […] The microcolonies growing on or near the test strip were imaged using microcolony autofluorescence and non-magnified large area imaging as in previous examples. After imaging, the plates were allowed to incubate overnight.

[2] = system: E. coli MG1655/pLafr I (resistant strain); assay: E-test strip susceptibility test with autofluorescent microcolony imaging; format: cell-based; details: E-test strip 0.016-256 μg tetracycline, TSA, 5 hours at 37° C.
Method: After imaging, the plates were allowed to incubate overnight.

SMILES: CN(C)[C@@H]1C(O)=C(C(N)=O)C(=O)[C@@]2(O)C(O)=C3C(=O)c4c(O)cccc4[C@@](C)(O)[C@H]3C[C@@H]12 [tetracycline]
- MIC [1]: ~2 µg/mL (≈ 4.5 µM)
- segment of the E-test strip near which the strain grows [2]: ~256 µg/mL
